Consider 31 compounds from patent EP4624465A1, “COMPOUND SERVING AS DDR1 KINASE INHIBITOR, AND MEDICINE” (Nippon Shinyaku Co., Ltd., priority 2022, dated 2024).

The structures appear in SMILES notation. Structures can show the parent of a compound that is named as a salt.

The target of this experiment is DDR1 kinase (Homo sapiens, UniProt Q08345). Nature of the experiment: Evaluation of DDR1 kinase inhibition (LANCE Ultra TR-FRET kinase assay). It counts as biochemical. Also noted: purchased Carna Biosciences 08-113. The conditions noted are these: DDR1 protein 0.5 nM, LANCE Ultra ULight-poly GAT substrate, 2 hours at room temperature, duplicate; read-out: DDR-1 IC50. A general note: TR-FRET usually uses a lanthanide donor and a delayed reading to cut background.
DDR1 kinase, sequence (Q08345 19-876 isoform Q08345-2 limits assumed): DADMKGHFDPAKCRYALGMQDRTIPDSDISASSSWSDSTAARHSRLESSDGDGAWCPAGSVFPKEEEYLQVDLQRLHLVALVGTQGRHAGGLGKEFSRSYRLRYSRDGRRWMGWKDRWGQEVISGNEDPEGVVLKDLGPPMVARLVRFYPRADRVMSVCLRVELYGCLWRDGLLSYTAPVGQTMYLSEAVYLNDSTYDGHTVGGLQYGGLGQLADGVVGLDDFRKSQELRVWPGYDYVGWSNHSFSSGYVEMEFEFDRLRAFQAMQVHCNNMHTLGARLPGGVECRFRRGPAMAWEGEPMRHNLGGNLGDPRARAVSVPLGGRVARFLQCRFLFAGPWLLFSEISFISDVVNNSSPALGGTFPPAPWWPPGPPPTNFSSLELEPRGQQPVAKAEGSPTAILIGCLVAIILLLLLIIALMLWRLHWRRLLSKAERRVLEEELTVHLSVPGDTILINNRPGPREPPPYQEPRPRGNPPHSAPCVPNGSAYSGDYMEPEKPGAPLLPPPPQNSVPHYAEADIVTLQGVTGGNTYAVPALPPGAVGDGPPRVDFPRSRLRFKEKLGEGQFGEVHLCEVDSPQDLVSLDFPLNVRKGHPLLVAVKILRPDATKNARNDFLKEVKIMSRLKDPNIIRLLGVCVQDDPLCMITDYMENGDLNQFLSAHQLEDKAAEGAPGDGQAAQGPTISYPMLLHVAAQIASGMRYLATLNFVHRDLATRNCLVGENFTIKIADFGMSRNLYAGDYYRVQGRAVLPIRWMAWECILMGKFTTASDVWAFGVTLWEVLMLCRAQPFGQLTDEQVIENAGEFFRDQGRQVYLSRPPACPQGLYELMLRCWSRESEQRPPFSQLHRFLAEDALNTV

On to `CC(C(=O)N1CCC[C@H]1C(F)(F)F)n1nc(C2CN(C(=O)c3ccnc(N)c3)C2)c2c(F)cc(F)cc21` (stereo partly drawn) [Compound E-103, 2-{3-[1-(2-aminopyridine-4-carbonyl)azetidin-3-yl]-4,6-difluoro-1H-indazol-1-yl}-1-[(2S)-2-(trifluoromethyl)pyrrolidin-1-yl}propane-1-one hydrochloride], for which the half-maximal inhibitory concentration (IC50) came to 14 nM. The figure for `Nc1cc(C(=O)N2CC(c3nn(Cc4noc(-c5ccccc5F)n4)c4cncc(F)c34)C2)ccn1` [Compound E-160, 4-[3-(4-fluoro-1-{[5-(2-fluorophenyl)-1,2,4-oxadiazol-3-yl]methyl}-1H-pyrazolo[3,4-c]pyridin-3-yl)azetidine-1-carbonyl]pyridin-2-amine] is 140 nM.

For `Nc1cc(C(=O)N2CC(c3nn(Cc4noc(C5(C(F)(F)F)CC5)n4)c4cccc(F)c34)C2)ccn1` [Compound E-147], the half-inhibitory concentration (IC50) is 0.3 nM. As to `Nc1cc(C(=O)N2CC(c3nn(CC#Cc4ccccc4)c4cc(F)cc(F)c34)C2)ccn1` [Compound E-152, 4-{3-[4,6-difluoro-1-(3-phenylprop-2-yn-1-yl)-1H-indazol-3-yl]azetidine-1-carbonyl)pyridin-2-amine], the IC50 is 90 nM. The figure for `Nc1cc(C(=O)N2CC(c3nn(CC4CCC(F)(F)CC4)c4cc(F)cc(F)c34)C2)ccn1` [Compound E-57, 4-(3-{1-[(4,4-difluorocyclohexyl)methyl]-4,6-difluoro-1H-indazol-3-yl}azetidine-1-carbonyl)pyridin-2-amine] is 140 nM. Take `Nc1cc(C(=O)N2CC(c3nn(Cc4nc(-c5ccncc5F)no4)c4cncc(F)c34)C2)ccn1` [Compound E-170]: the half-inhibitory concentration (IC50) came out at 220 nM.

Turning to `Nc1cc(C(=O)N2CC(c3nn(CC(=O)N4CCC[C@H]4C(F)(F)F)c4c3CC(F)(F)CC4)C2)c(F)cn1` [Compound E-25], the half-inhibitory concentration (IC50) stood at 9 nM.

Consider `Nc1cc(C(=O)N2CCC(c3cn(CC(=O)N4CCC[C@H]4C(F)(F)F)c4cccc(F)c34)CC2)c(F)cn1` [Compound E-10, 2-{3-[1-(2-amino-5-fluoropyridine-4-carbonyl)piperidin-4-yl]-4-fluoro-1H-indol-1-yl}-1-[(2S)-2-(trifluoromethyl)pyrrolidin-1-yl]ethan-1-one], for which the 50% inhibitory concentration (IC50) was 0.3 nM. As for `COC[C@@H]1CCCN1C(=O)Cn1nc(C2CN(C(=O)c3cc(N)ncc3F)C2)c2c(F)cc(F)cc21` [Compound E-179, 2-{3-[1-(2-amino-5-fluoropyridine-4-carbonyl)azetidin-3-yl]-4,6-difluoro-1H-indazol-1-yl}-1-f(2S)-2-(methoxymethyl)pyrrolidin-1-yllethan-1-one], the half-maximal inhibitory concentration (IC50) is 2.9 nM.

For the compound `Nc1cc(C(=O)N2CC(c3nn(CC(=O)N4CCC[C@@H]4CO)c4cc(F)cc(F)c34)C2)ccn1` [Compound E-36, 2-{3-[1-(2-aminopyridine-4-carbonyl)azetidin-3-yl]-4,6-difluoro-1H-indazol-1-yl}-1-[(2R)-2-(hydroxymethyl)pyrrolidin-1-yl]ethan-1-one], the IC50 turned out to be 270 nM.

On to `Cc1nc(N)sc1C(=O)N1CC(c2nn(CC(=O)N3CCOCC3(C)C)c3ccccc23)C1` [Compound E-7, 2-{3-[1-(2-amino-4-methyl-1,3-thiazole-5-carbonyl)azetidin-3-yl]-1H-indazol-1-yl}-1-(3,3-dimethylmorpholin-4-yl)ethan-1-one], for which the half-inhibitory concentration (IC50) turned out to be 15 nM.

Consider `Nc1cc(C(=O)N2CC(c3nn(Cc4noc(C5(C(F)(F)F)CCC5)n4)c4cccc(F)c34)C2)ccn1` [Compound E-146, 4-{3-[4-fluoro-1-({5-[1-(trifluoromethyl)cyclobutyl]-1,2,4-oxadiazol-3-yl}methyl)-1H-indazol-3-yl]azetidine-1-carbonyl}pyridin-2-amine hydrochloride], for which the IC50 was 0.4 nM.

For the compound `Nc1cc(C(=O)N2CC(c3nn(CC(=O)N4CCC[C@H]4C(F)(F)F)c4ccc(F)cc34)C2)ccn1` [Compound E-202, 2-{3-[1-(2-aminopyridine-4-carbonyl)azetidin-3-yl]-5-fluoro-1H-indazol-1-yl}-1-[(28)-2-(trifluoromethyl)pyrrolidin-1-yl]ethan-1-one], the IC50 came to 1.1 nM.

As to `CN(CC(F)(F)F)C(=O)Cn1nc(C2CN(C(=O)c3ccnc(N)n3)C2)c2c(Cl)c(F)ccc21` [Compound E-287, 2-{3-(1-(2-aminopyrimidine-4-carbonyl)azetidin-3-yl]-4-chloro-5-fluoro-1H-indazol-1-yl}-N-methyl-N-(2,2,2-trifluoroethyl)acetamide], the IC50 came out at 7.8 nM. As for `CC1(C)COCCN1C(=O)Cn1nc(C2CN(C(=O)c3cc(N)ncc3F)C2)c2ccccc21` [Compound E-187, 2-{3-[1-(2-amino-5-fluoropyridine-4-carbonyl)azetidin-3-yl]-1H-indazol-1-yl}-1-(3,3-dimethylmorpholin-4-yl)ethan-1-one], the IC50 came out at 0.6 nM. In the case of `O=C(c1ccnc2[nH]ncc12)N1CC(c2nn(CC(=O)N3CCC[C@H]3C(F)(F)F)c3cc(F)cc(F)c23)C1` [Compound E-17], the IC50 stood at 0.3 nM. Take `Nc1nccc(C(=O)N2CC(c3nn(CC(=O)N4CCC[C@H]4C(F)(F)F)c4ccc(F)cc34)C2)n1` [Compound E-241, 2-{3-[1-(2-aminopyrimidine-4-carbonyl)azetidin-3-yl]-5-fluoro-1H-indazol-1-yl}-1-[(2S)-2-(trifluoromethyl)pyrrolidin-1-yl]ethan-1-one]: the IC50 stood at 4.3 nM.

Turning to `Nc1nccc(C(=O)N2CC(c3nn(CC(=O)N4CCO[C@@H](C(F)(F)F)C4)c4cc(F)cc(F)c34)C2)c1F` [Compound E-184, 2-{3-[1-(2-amino-3-fluoropyridine-4-carbonyl)azetidin-3-yl]-4,6-difluoro-1H-indazol-1-yl}-1-[(2R)-2-(trifluoromethyl)morpholin-4-yl]ethan-1-one p-toluenesulfonate], the IC50 is 3 nM. Take `Nc1cc(C(=O)N2CC(c3nn(CC(=O)NC4CCC(F)(F)CC4)c4ccccc34)C2)ccn1` [Compound E-235, 2-{3-[1-(2-aminopyridine-4-carbonyl)azetidin-3-yl]-1H-indazol-1-yl}-N-(4,4-difluorocyclohexyl)acetamide]: the half-maximal inhibitory concentration (IC50) turned out to be 59 nM. The figure for `CC[C@@H]1CCCN1C(=O)Cn1nc(C2CN(C(=O)c3ccnc(N)c3)C2)c2ccccc21` [Compound E-222, 2-{3-[1-(2-aminopyridine-4-carbonyl)azetidin-3-yl)-1H-indazol-1-yl}-1-[(2R)-2-ethylpyrrolidin-1-yl]ethan-1-one] is 2.1 nM; for `Cc1nc(N)sc1C(=O)N1CCC(c2nn(CC(=O)N3CCC[C@H]3C(F)(F)F)c3cccc(F)c23)CC1` [Compound E-119, 2-{3-[1-(2-amino-4-methyl-1,3-thiazole-5-carbonyl)piperidin-4-yl]-4-fluoro-1H-indazol-1-yl}·1-[(2S)-2-(trifluoromethyl)pyrrolidin-1-yl]ethan-1-one] it is 4.4 nM; for `O=C(c1ccncc1Cl)N1CC(c2nn(CC(=O)N3CCC[C@H]3C(F)(F)F)c3cc(F)cc(F)c23)C1` [Compound E-143, 2-{3-[1-(3-chloropyridine-4-carbonyl)azetidin-3-yl]-4,6-difluoro-1H-indazol-1-yl}-1-[(28)-2-(trifluoromethyl)pyrrolidin-1-yl]ethan-1-one] it is 4.1 nM. The figure for `Nc1cc(C(=O)N2CC(c3nn(Cc4ccc(C(F)(F)F)cn4)c4cncc(F)c34)C2)ccn1` [Compound E-150] is 350 nM; for `Nc1cc(C(=O)N2CC(c3nn(CC(=O)N4CCC[C@H]4COC(F)(F)F)c4cc(F)cc(F)c34)C2)ccn1` [Compound E-56, 2-{3-[1-(2-aminopyridine-4-carbonyl)azetidin-3-yl]-4,6-difluoro-1H-indazol-1-yl}-1-[(2S)-2-[(trifluoromethoxy)methyl]pyrrolidin-1-yl]ethan-1-one] it is 0.8 nM.

For the compound `Nc1cc(C(=O)N2CCC(c3nn(CC(=O)N4CCC[C@H]4C(F)(F)F)c4cccc(F)c34)CC2)c(F)cn1` [Compound E-174, 2-{3-[1-(2-amino-5-fluoropyridine-4-carbonyl)piperidin-4-yl]-4-fluoro-1H-indazol-1-yl}-1-[(2S)-2-(trifluoromethyl)pyrrolidin-1-yl]ethan-1-one], the concentration for half-maximal inhibition (IC50) came out at 1.1 nM.

`Cc1[nH]ncc1C(=O)N1CC(c2nn(CC(=O)N3CCC[C@H]3C(F)(F)F)c3cc(F)cc(F)c23)C1` [Compound E-165, 2-{4,6-difluoro-3-[1-(5-methyl-1H-pyrazole-4-carbonyl)azetidin-3-yl]-1H-indazol-1-yl}-1-[(28)-2-(trifluoromethyl)pyrrolidin-1-yl]ethan-1-one]: the IC50 was 29 nM. In the case of `Nc1nccc(C(=O)N2CC(c3nn(CC(=O)N4CCC[C@H]4C(F)(F)F)c4ccc(Cl)cc34)C2)n1` [Compound E-290, 2-{3-[1-(2-aminopyrimidine-4-carbonyl)azetidin-3-yl]-5-chloro-1H-indazol-1-yl}-1-[(28)-2-(trifluoromethyl)pyrrolidin-1-yl]ethan-1-one], the half-maximal inhibitory concentration (IC50) was 1.6 nM. As for `CC1(C)CCCN1C(=O)Cn1nc(C2CN(C(=O)c3ccnc(N)c3)C2)c2ccccc21` [Compound E-221, 2-{3-[1-(2-aminopyridine-4-carbonyl)azetidin-3-yl]-1H-indazol-1-yl}-1-(2,2-dimethylpyrrolidin-1-yl)ethan-1-one], the IC50 came out at 4.4 nM. Take `Nc1cc(C(=O)N2CC(c3nn(Cc4noc(C5CCOCC5)n4)c4cccc(F)c34)C2)ccn1` [Compound E-137]: the IC50 turned out to be 34 nM.

In the case of `Nc1cc(C(=O)N2CC(c3nn(CC(=O)N4CCC5CC54)c4ccccc34)C2)ccn1` (stereo not shown) [Compound E-223, 2-{3-[1-(2-aminopyridine-4-carbonyl)azetidin-3-yl]-1H-indazol-1-yl}-1-{2-azabicyclo[3.1.0)hexan-2-yl}ethan-1-one], the IC50 was 82 nM. As for `CN(C(=O)Cn1nc(C2CN(C(=O)c3cc(N)ncc3F)C2)c2ccccc21)C(C)(C)C` [Compound E-268, 2-{3-[1-(2-amino-5-fluoropyridine-4-carbonyl)azetidin-3-yl]-1H-indazol-1-yl}-N-tert-butyl-N-methylacetamide], the 50% inhibitory concentration (IC50) was determined as 3.9 nM.

By IC50 is commonly meant the point on the concentration scale where inhibition reaches its midpoint.
